# Measured values: patent publication US7144876B2, “3,5-Disubstituted-[1,2,4]-oxadiazoles and analogs as activators of caspases and inducers of apoptosis and the use thereof” (Cytovia, Inc., priority 2002, dated 2006)
# Legend:
# T-47D [1] = assay: Caspase cascade activation assay (N-(Ac-DEVD)-N'-ethoxycarbonyl-R110 fluorogenic substrate) in solid tumor cells; type: cell-based, Human; details: T-47D cells, 48 h incubation; for EC50: Homo sapiens, T47D, sigmoidal dose-response, read-out: Caspase potency EC50; for Caspase activity (Ratio): ratio of net RFU of test compound to that of control samples
# Method: Human breast cancer cell lines T-47D and ZR-75-1 were grown according to media component mixtures designated by American Type Culture Collection+10% FCS (Invitrogen Corporation), in a 5% CO2-95% humidity incubator at 37° C. T-47D and ZR-75-1 cells were maintained at a cell density between 50 and 80% confluency at a cell density of 0.1 to 0.6×10^6 cells/mL. Cells were harvested at 600×g and resuspended at 0.65×10^6 cells/mL into appropriate media+10% FCS. An aliquot of 45 μl of cells was added to a well of a 96-well microtiter plate containing 2.5 μl of a 10% DMSO in RPMI-1640 media solution containing 0.16 to 100 μM of 3-(3-amino-4-chloro-phenyl)-5-(3-chlorothiophen-2-yl)-[1,2,4]-oxadiazole or other test compound (0.016 to 10 μM final). An aliquot of 22.5 μL of cells was added to a well of a 384-well microtiter plate containing 2.5 μl of a 10% DMSO in RPMI-1640 media solution without test compound as the control sample. The samples were mixed by agitation and then incubated at 37° C. for 48 h in a 5% CO2-95% humidity incubator. After incubation, the samples were removed from the incubator and 25 μL of a solution containing 14 μM of N-(Ac-DEVD)-N′-ethoxycarbonyl-R110 (SEQ ID No.:1) fluorogenic substrate (Maxim, Inc.; WO99/18856), 20% sucrose (Sigma), 20 mM DTT (Sigma), 200 mM NaCl (Sigma), 40 mM Na PIPES buffer pH 7.2 (Sigma), and 500 μg/mL lysolecithin (Calbiochem) was added. The samples were mixed by agitation and incubated at room temperature. Using a fluorescent plate reader (Model SpectraMax Gemini, Molecular Devices), an initial reading (T=0) was made approximately 1–2 min after addition of the substrate solution, employing excitation at 485 nm and emission at 530 nm, to determine the background fluorescence of the control sample. After the 3 h incubation, the samples were read for fluorescence as above (T=3 h).
# The Relative Fluorescence Unit values (RFU) were used to calculate the sample readings as follows: RFU(T=3h)−Control RFU(T=0)=Net RFU(T=3h)
# The activity of caspase cascade activation was determined by the ratio of the net RFU value for 3-(3-amino-4-chloro-phenyl)-5-(3-chlorothiophen-2-yl)-[1,2,4]-oxadiazole or other test compound to that of control samples. The EC50 (nM) was determined by a sigmoidal dose-response calculation (Prism 2.0, GraphPad Software Inc.).
# T-47D [2] = assay: Inhibition of cell proliferation (GI50), CellTiter 96 AQueous One Solution; type: cell-based; details: Homo sapiens, T47D; T-47D cells, 48 h incubation; dose for 50% inhibition of cell proliferation
# Method: T-47D and SKBr-3 cells were grown and harvested as in Example 72. An aliquot of 90 μL of cells (2.2×10^4 cells/mL) was added to a well of a 96-well microtiter plate containing 10 μl of a 10% DMSO in RPMI-1640 media solution containing 1 nM to […] of 3-(3-amino-4-chloro-phenyl)-5-(3-chlorothiophen-2-yl)-[1,2,4]-oxadiazole (0.1 nM to 10 μM final). An aliquot of 90 μL of cells was added to a well of a 96-well microtiter plate containing 10 μL of a 10% DMSO in RPMI-1640 media solution without compound as the control sample for maximal cell proliferation (AMax). The samples were mixed by agitation and then incubated at 37° C. for 48 h in a 5% CO2-95% humidity incubator. After incubation, the samples were removed from the incubator and 20 μL of CellTiter 96 AQUEOUS One Solution Cell Proliferation™ reagent (Promega) was added. The samples were mixed by agitation and incubated at 37° C. for 2–4 h in a 5% CO2-95% humidity incubator. Using an absorbance plate reader (Model 1420 Wallac Instruments), an initial reading (T=0) was made approximately 1–2 min after addition of the solution, employing absorbance at 490 nm. This determines the possible background absorbance of the test compounds. No absorbance for 3-(3-amino-4-chloro-phenyl)-5-(3-chlorothiophen-2-yl)-[1,2,4]-oxadiazole was found at 490 nm. After the 2–4 h incubation, the samples were read for absorbance as above (ATest).
# Baseline for GI50 (dose for 50% inhibition of cell proliferation) of initial cell numbers were determined by adding an aliquot of 90 μL of cells or 90 μL of media, respectively, to wells of a 96-well microtiter plate containing 10 μL of a 10% DMSO in RPMI-1640 media solution. The samples were mixed by agitation and then incubated at 37° C. for 0.5 h in a 5% CO2-95% humidity incubator. After incubation, the samples were removed from the incubator and 20 μL of CellTiter 96 AQUEOUS One Solution Cell Proliferation™ reagent (Promega) was added. The samples were mixed by agitation and incubated at 37° C. for 2–4 h in a 5% CO2-95% humidity incubator. Absorbance was read as above, (AStart) defining absorbance for initial cell number used as baseline in GI50 determinations.
# Calculation: GI50 (dose for 50% inhibition of cell proliferation) is the concentration where [(ATest−AStart)/(AMax−Astart)]=0.5.
# MX1 = assay: as above; type: cell-based; details: Homo sapiens; MX1 cells, 48 h incubation; dose for 50% inhibition of cell proliferation
SMILES,EC50 (T-47D [1]),GI50 (T-47D [2]),Caspase activity (Ratio) (T-47D [1]),GI50 (MX1)
"Cc1cccnc1-c1noc(-c2occc2Br)n1 [Example 57, 5-(3-Bromofuran-2-yl)-3-(3-methyl-pyridin-2-yl)-[1,2,4]oxadiazole]",0.846 µM,,6.4,
"O=[N+]([O-])c1cc(-c2noc(-c3sccc3Cl)n2)ccc1Cl [Example 10, 5-(3-Chlorothiophen-2-yl)-3-(4-chloro-3-nitro-phenyl)-[1,2,4]-oxadiazole]",3.75 µM,,9.9,
"Fc1cc(-c2noc(-c3sccc3Cl)n2)ccc1Cl [Example 9, 5-(3-Chlorothiophen-2-yl)-3-(4-chloro-3-fluoro-phenyl)-[1,2,4]-oxadiazole]",3.27 µM,0.514 µM,9.0,0.899 µM
"CN(C)c1cc(-c2noc(-c3occc3Br)n2)ccc1Cl [Example 4, 5-(3-Bromofuran-2-yl)-3-(3-dimethylamino-4-chloro-phenyl)-[1,2,4]-oxadiazole]",1.85 µM,0.415 µM,11.9,0.21 µM
"Nc1cc(-c2noc(-c3sccc3Cl)n2)ccc1Cl [Example 1, 3-(3-Amino-4-chloro-phenyl)-5-(3-chlorothiophen-2-yl)-[1,2,4]-oxadiazole]",1.98 µM,0.894 µM,11.9,7 µM
"CC1CCN(c2noc(-c3sccc3Cl)n2)CC1 [Example 22, 5-(3-Chlorothiophen-2-yl)-3-(4-methylpiperidin-1-yl)-[1,2,4]oxadiazole]",3.32 µM,,5.4,
"N#Cc1cc(-c2noc(-c3sccc3Cl)n2)ccc1Cl [Example 7, 5-(3-Chlorothiophen-2-yl)-3-(4-chloro-3-cyano-phenyl)-[1,2,4]-oxadiazole]",4 µM,,3.4,
"Clc1ccsc1-c1nc(N2CCCCC2)no1 [Example 18, 5-(3-Chlorothiophen-2-yl)-3-(1-piperidinyl)-[1,2,4]-oxadiazole]",5.04 µM,,2.8,

# More lines, main results first:
EC50 (T-47D [1]),GI50 (T-47D [2]),SMILES,Caspase activity (Ratio) (T-47D [1]),GI50 (MX1)
2.44 µM,,"Cc1cccnc1-c1noc(-c2sccc2Cl)n1 [Example 47, 5-(3-Chlorothiophen-2-yl)-3-(3-methyl-pyridin-2-yl)-[1,2,4]oxadiazole]",4.5,
5.55 µM,,"Clc1ccc(C=Cc2noc(-c3sccc3Cl)n2)cc1 [Example 13, 3-[2-(4-Chloro-phenyl)-vinyl]-5-(3-chlorothiophen-2-yl)-[1,2,4]-oxadiazole]",4.4,
1.52 µM,0.36 µM,"CN(C)c1cc(-c2noc(-c3sccc3Cl)n2)ccc1Cl [Example 2, 5-(3-Chlorothiophen-2-yl)-3-(3-dimethylamino-4-chloro-phenyl)-[1,2,4]-oxadiazole]",15.1,5 µM
0.818 µM,,"Cc1cc(Cl)ccc1-c1noc(-c2sccc2Cl)n1 [Example 43, 3-(4-Chloro-2-methyl-phenyl)-5-(3-chlorothiophen-2-yl)-[1,2,4]oxadiazole]",7.9,
1.01 µM,,"Cc1cc(Cl)ccc1-c1noc(-c2occc2Br)n1 [Example 49, 5-(3-Bromofuran-2-yl)-3-(4-chloro-2-methyl-phenyl)-[1,2,4]oxadiazole]",11.9,
0.797 µM,,"Cc1cc(Cl)cnc1-c1noc(-c2occc2Br)n1 [Example 50, 5-(3-Bromofuran-2-yl)-3-(5-chloro-3-methyl-pyridin-2-yl)-[1,2,4]oxadiazole]",5.9,
